According to patent publication US8173645B2 (Takeda San Diego, Inc., priority 2007, dated 2012):

Target: T1, glucokinase (GK), residues 12-465 of the human enzyme (Homo sapiens, UniProt P35557)
T1 construct: I.D. No. 1 corresponds to residues 12-465 of glucokinase; made in house; host or cells: E. coli DH10b-Tlr
T1 sequence (P35557 with tags, fused parts or gaps isoform P35557-2): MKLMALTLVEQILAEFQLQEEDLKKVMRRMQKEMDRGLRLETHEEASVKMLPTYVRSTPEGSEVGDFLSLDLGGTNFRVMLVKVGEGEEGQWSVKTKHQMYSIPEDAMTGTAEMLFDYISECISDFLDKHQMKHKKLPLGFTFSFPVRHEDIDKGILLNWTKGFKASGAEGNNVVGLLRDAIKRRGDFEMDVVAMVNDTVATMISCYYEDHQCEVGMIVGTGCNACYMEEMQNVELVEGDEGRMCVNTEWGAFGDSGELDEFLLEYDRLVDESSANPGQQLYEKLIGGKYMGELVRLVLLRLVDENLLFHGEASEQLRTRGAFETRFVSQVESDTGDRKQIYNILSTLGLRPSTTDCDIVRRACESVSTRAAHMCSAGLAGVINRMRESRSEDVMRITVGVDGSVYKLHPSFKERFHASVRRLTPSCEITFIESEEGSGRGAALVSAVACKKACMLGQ
Experiment: Enzymatic glucokinase activity assay (KinaseGlo luminescence, ATP consumption)
Type: biochemical
Settings: 5 μM ATP, 5 mM Glucose; for EC50: GK activation, Kact = concentration giving 50% of the maximal increase in GK activity, read-out: pKact; for Emax: calculated maximal gain in GK enzyme activity at a saturating concentration of the compound, read-out: % ACTmax
From the text: The activity of compounds as glucokinase activators may be assayed in vitro, in vivo or in a cell line. Provided below is an enzymatic glucokinase activity assay.
Purified glucokinase may be obtained as follows. DNA encoding residues 12-465 of the full-length sequence of the human enzyme may be amplified by PCR and cloned into the HindIII and EcoRI sites of pFLAG-CTC (Sigma). SEQ. I.D. No. 1 corresponds to residues 12-465 of glucokinase.
The expression of recombinant glucokinase protein may be carried out by transformation and growth of DH10b-Tlr E. coli cells incorporating the (pFLAG-CTC) plasmid in LB media. Protein expression can be induced in this system by the addition of IPTG to the culture medium.
Recombinant protein may be isolated from cellular extracts by passage over Sepharose Q Fast Flow resin (Pharmacia). This partially purified GK extract may then be further purified by a second passage over Poros HQ 10 (Applied Biosystems). The purity of GK may be determined on denaturing SDS-PAGE gel. Purified GK may then be concentrated to a final concentration of 20.0 mg/ml. After flash freezing in liquid nitrogen, the proteins can be stored at −78° C. in a buffer containing 25 mM TRIS-HCl pH 7.6, 50 mM NaCl, and 0.5 mM TCEP.
The activation properties of compounds for GK may be determined using a black 384-well-plate format under the following reaction conditions: 25 mM Hepes pH 7.2, 25 mM NaCl, 10 mM MgCl2, 0.01% Brij35, 1 mM DTT, 5 μM ATP, 5 mM Glucose 2% DMSO. The amount of ATP consumed may be determined quantitatively by addition of equal volume of luciferase reagent (luciferase+beetle luciferin—KinaseGlo Luminescent Kinase Assay kit from Promega). The luminescence intensity may be measured by using the Analyst HT from LJL Biosystems.
The assay reaction may be initiated as follows: 4 μl of substrate mixture (12.5 μM ATP and 12.5 mM Glucose) was added to each well of the plate, followed by the addition of 2 μl of activator (2 fold serial dilutions for 11 data points for each activator) containing 10% DMSO. 4 μL of 1.25 nM GK solution may be added to initiate the reaction. The reaction mixture may then be incubated at room temperature for 60 min, and quenched and developed by addition of 10 μL of luciferase reagent. Luminescence intensities of the resulting reaction mixtures may be measured after a 10 min incubation at room temperature. The luminescence intensity may be measured by using the Analyst HT from LJL Biosystems.
pKact and % ACTmax values may be calculated by non-linear curve fitting of the compound concentrations and luminescence intensities to a standard inhibition/activation equation.

EC50 | Emax | Structure (SMILES)
≤ 0.631 µM | ≥ 119% | O=C(Nc1nccs1)[C@H](CC1CCCCC1)N1CCN(S(=O)(=O)c2cc(Cl)ccc2F)CC1=O [Example 185, (S)-2-(4-(5-chloro-2-fluorophenylsulfonyl)-2-oxopiperazin-1-yl)-3-cyclohexyl-N-(thiazol-2-yl)propanamide]
≥ 3.16 µM | 74.1 to 97% | O=C(Nc1nccs1)[C@H](CC1CCCCC1)N1CCN(C(=O)Nc2ccc3ccccc3c2)CC1=O [Example 139, (S)-4-(3-cyclohexyl-1-oxo-1-(thiazol-2-ylamino)propan-2-yl)-N-(naphthalen-2-yl)-3-oxopiperazine-1-carboxamide]
≥ 3.16 µM | ≤ 74% | O=C(Nc1nccs1)[C@H](CC1CCCCC1)N1CCN(C(=O)NCc2ccc(Cl)cc2)CC1=O [Example 138, (S)-N-(4-chlorobenzyl)-4-(3-cyclohexyl-1-oxo-1-(thiazol-2-ylamino)propan-2-yl)-3-oxopiperazine-1-carboxamide]
1.58 to 2.51 µM | 97.1 to 107% | O=C(Nc1nccs1)[C@H](CC1CCCCC1)N1CCN(C(=S)NCCN2CCOCC2)CC1=O [Example 117, (S)-3-cyclohexyl-2-(4-(2-morpholinoethylcarbamothioyl)-2-oxopiperazin-1-yl)-N-(thiazol-2-yl)propanamide]
≤ 0.631 µM | ≤ 74% | O=C(Nc1nccs1)[C@H](CC1CCCCC1)N1CCN(S(=O)(=O)c2cc(Cl)c(Cl)s2)CC1=O [Example 170, (S)-3-cyclohexyl-2-(4-(4,5-dichlorothiophen-2-ylsulfonyl)-2-oxopiperazin-1-yl)-N-(thiazol-2-yl)propanamide]
1.58 to 2.51 µM | 97.1 to 107% | O=C(Nc1nccs1)[C@H](CC1CCCCC1)N1CCN(S(=O)(=O)c2cccc([N+](=O)[O-])c2)CC1=O [Example 156, (S)-3-cyclohexyl-2-(4-(3-nitrophenylsulfonyl)-2-oxopiperazin-1-yl)-N-(thiazol-2-yl)propanamide]
≤ 0.631 µM | ≤ 74% | CC(C)Oc1ccc(S(=O)(=O)N2CCN([C@@H](CC3CCCCC3)C(=O)Nc3nccs3)C(=O)C2)cc1 [Example 101, (S)-3-cyclohexyl-2-(4-(4-isopropoxyphenylsulfonyl)-2-oxopiperazin-1-yl)-N-(thiazol-2-yl)propanamide]
0.794 to 1.26 µM | 97.1 to 107% | COC(=O)c1cc(S(=O)(=O)N2CCN([C@@H](CC3CCCCC3)C(=O)Nc3nccs3)C(=O)C2)oc1C [Example 159, (S)-methyl 5-(4-(3-cyclohexyl-1-oxo-1-(thiazol-2-ylamino)propan-2-yl)-3-oxopiperazin-1-ylsulfonyl)-2-methylfuran-3-carboxylate]
≥ 3.16 µM | ≤ 74% | Cn1nc(-c2ccc(S(=O)(=O)N3CCN([C@@H](CC4CCCCC4)C(=O)Nc4nccs4)C(=O)C3)s2)cc1C(F)(F)F [Example 175, (S)-3-cyclohexyl-2-(4-(5-(1-methyl-5-(trifluoromethyl)-1H-pyrazol-3-yl)thiophen-2-ylsulfonyl)-2-oxopiperazin-1-yl)-N-(thiazol-2-yl)propanamide]
≤ 0.631 µM | 108 to 119% | Cc1ccc(F)cc1S(=O)(=O)N1CCN([C@@H](CC2CCCCC2)C(=O)Nc2nccs2)C(=O)C1 [Example 191, (S)-3-cyclohexyl-2-(4-(5-fluoro-2-methylphenylsulfonyl)-2-oxopiperazin-1-yl)-N-(thiazol-2-yl)propanamide]
≥ 3.16 µM | 97.1 to 107% | O=C(Nc1nccs1)[C@H](CC1CCCCC1)N1CCN(C(=S)Nc2ccc(OC(F)F)cc2)CC1=O [Example 135, (S)-3-cyclohexyl-2-(4-(4-(difluoromethoxy)phenylcarbamothioyl)-2-oxopiperazin-1-yl)-N-(thiazol-2-yl)propanamide]
≤ 0.631 µM | 108 to 119% | O=C(Nc1nccs1)[C@H](CC1CCCCC1)N1CCN(S(=O)(=O)c2ccc(Br)s2)CC1=O [Example 203, (S)-2-(4-(5-bromothiophen-2-ylsulfonyl)-2-oxopiperazin-1-yl)-3-cyclohexyl-N-(thiazol-2-yl)propanamide]
≤ 0.631 µM | ≥ 119% | O=C(Nc1nccs1)[C@H](CC1CCCCC1)N1CCN(S(=O)(=O)c2cccc3nonc23)CC1=O [Example 176, (S)-2-(4-(benzo[c][1,2,5]oxadiazol-4-ylsulfonyl)-2-oxopiperazin-1-yl)-3-cyclohexyl-N-(thiazol-2-yl)propanamide]
≤ 0.631 µM | ≥ 119% | O=C(Nc1nccs1)[C@H](CC1CCCCC1)N1CCN(S(=O)(=O)C2CCCCC2)CC1=O [Example 227]

Further lines, the compound ahead of its results:

Structure (SMILES) | EC50 | Emax
COc1ccc(C)cc1S(=O)(=O)N1CCN([C@@H](CC2CCCCC2)C(=O)Nc2nccs2)C(=O)C1 [Example 95, (S)-3-cyclohexyl-2-(4-(2-methoxy-5-methylphenylsulfonyl)-2-oxopiperazin-1-yl)-N-(thiazol-2-yl)propanamide] | 0.794 to 1.26 µM | ≥ 119%
O=C(Nc1nccs1)[C@H](CC1CCCCC1)N1CCN(S(=O)(=O)Cc2ccc(Cl)cc2)CC1=O [Example 69] | 1.58 to 2.51 µM | 97.1 to 107%
O=C(Nc1nccs1)[C@H](CC1CCCCC1)N1CCN(S(=O)(=O)c2ccc3ncsc3c2)CC1=O [Example 97, (S)-2-(4-(benzo[d]thiazol-6-ylsulfonyl)-2-oxopiperazin-1-yl)-3-cyclohexyl-N-(thiazol-2-yl)propanamide] | 0.794 to 1.26 µM | 97.1 to 107%
O=C(Nc1nccs1)[C@H](CC1CCCCC1)N1CCN(S(=O)(=O)c2cc(Cl)cc(Cl)c2)CC1=O [Example 57, (S)-3-cyclohexyl-2-(4-(3,5-dichlorophenylsulfonyl)-2-oxopiperazin-1-yl)-N-(thiazol-2-yl)propanamide] | ≤ 0.631 µM | 74.1 to 97%
O=C(Nc1nccs1)[C@H](CC1CCCCC1)N1CCN(S(=O)(=O)c2ccc(F)cc2)CC1=O [Example 89, (S)-3-cyclohexyl-2-(4-(4-fluorophenylsulfonyl)-2-oxopiperazin-1-yl)-N-(thiazol-2-yl)propanamide] | 0.794 to 1.26 µM | 97.1 to 107%
COc1ccc(NC(=S)N2CCN([C@@H](CC3CCCCC3)C(=O)Nc3nccs3)C(=O)C2)cc1 [Example 86, (S)-3-cyclohexyl-2-(4-(4-methoxyphenylcarbamothioyl)-2-oxopiperazin-1-yl)-N-(thiazol-2-yl)propanamide] | ≥ 3.16 µM | 97.1 to 107%
CC(C)C[C@@H](C(=O)Nc1ncc(Cl)s1)N1CCN(S(=O)(=O)C2CC2)CC1=O [Example 10, (S)—N-(5-chlorothiazol-2-yl)-2-(4-(cyclopropylsulfonyl)-2-oxopiperazin-1-yl)-4-methylpentanamide] | 0.794 to 1.26 µM | ≥ 119%
O=C(Nc1nccs1)[C@H](CC1CCCCC1)N1CCN(C(=S)Nc2cccc(C(F)(F)F)c2)CC1=O [Example 84, (S)-3-cyclohexyl-2-(2-oxo-4-(3-(trifluoromethyl)phenylcarbamothioyl)piperazin-1-yl)-N-(thiazol-2-yl)propanamide] | ≥ 3.16 µM | 97.1 to 107%
Cc1c(Cl)cccc1S(=O)(=O)N1CCN([C@@H](CC2CCCCC2)C(=O)Nc2nccs2)C(=O)C1 [Example 51, (S)-2-(4-(3-chloro-2-methylphenylsulfonyl)-2-oxopiperazin-1-yl)-3-cyclohexyl-N-(thiazol-2-yl)propanamide] | 1.58 to 2.51 µM | 74.1 to 97%
